Each structure is given as a SMILES string.

The data set is described as follows: Human HepG2 cell viability assay in 384 well format. It counts as toxicity, cell-based. Details: dose 125 nL, time 70.5 hour; cytotoxicity at 70.5 h: concentration not given beside the values. Particulars: HepG2 cells, read-out: Inhibition.
For `O=C(N[C@@H]1CN(c2ncccn2)[C@@H]2CCCO[C@@H]21)c1cscn1`, the cytotoxicity at 70.5 h was 20.2%.

On to `CS(=O)(=O)N1CC(c2nc[nH]n2)c2cc(C(=O)NC3CC3)ccc21` (stereo unspecified), for which the cytotoxicity at 70.5 h was -3.52%.

On to `CCc1nc(-c2noc3ccc(C(=O)NCCN(C)C)cc23)co1`, for which the cytotoxicity at 70.5 h is -4.76%.

With `O=C(N[C@@H]1CN(c2ncc(F)cn2)[C@@H]2COC[C@@H]21)c1cscn1`, the cytotoxicity at 70.5 h is -13.8%.

Take `COCCN(C)C(=O)c1ccc2onc(-c3coc(C)n3)c2c1`: the cytotoxicity at 70.5 h was -16.8%.

Take `CCOC1CC2(CCN(C(=O)COC)CC2)c2cc(F)ccc21` (stereo unspecified): the cytotoxicity at 70.5 h is 1.7%.

For `CC(C)N1CCC2(CC1)CN(C)C(=O)C[C@H]2C(F)(F)F`, the cytotoxicity at 70.5 h is -7.67%.

For the compound `O=C(c1ccsc1)N1CCC2(CCN2Cc2ccc(F)cc2)C1` (stereo unspecified), the cytotoxicity at 70.5 h is -8.12%.

Consider `CCN1C(=O)CCCC12CCCN(C(=O)c1ccsc1)C2` (stereo unspecified), for which the cytotoxicity at 70.5 h turned out to be 1.97%.

As to `O=C(c1ccc2c(c1)OCO2)N1C[C@H](OCC2CC2)[C@H]2COC[C@H]21`, the cytotoxicity at 70.5 h was -8.17%.

Turning to `N#CCC(=O)NCc1nnc2n1CCN(Cc1nccs1)C2`, the cytotoxicity at 70.5 h was -4.61%.

As for `CN1CCC2(CC1)CN(C)C(=O)C[C@@H]2C(F)(F)F`, the cytotoxicity at 70.5 h was -2.18%.

With `CCN(CC)[C@@H]1CN(Cc2ccc(C)o2)[C@@H]2CCCO[C@H]12`, the cytotoxicity at 70.5 h was -14.1%.

Turning to `N#CCC(=O)NCc1nnc2n1CCN(Cc1cccs1)C2`, the cytotoxicity at 70.5 h was -6.57%.

With `O=C(NC1CCC1)C1CCC2(CN(C(=O)c3ccno3)C2)O1` (stereo unspecified), the cytotoxicity at 70.5 h was -14%.

`Cc1ccc(C(=O)N2C[C@H]3CN(Cc4csc(C)n4)C[C@H]3C2)cn1`: the cytotoxicity at 70.5 h came to 1.63%.

With `Cc1cnc(C(=O)N2C[C@H]3CN(Cc4nccs4)C[C@H]3C2)cn1`, the cytotoxicity at 70.5 h is -5.82%.

`Cc1cccc(COC[C@H]2CC[C@H]3[C@H](CCN3Cc3ccco3)O2)n1`: the cytotoxicity at 70.5 h is -4.41%.

Take `CCCS(=O)(=O)N1CC[C@@H]2[C@@H]1CC(=O)N2Cc1csc(C)n1`: the cytotoxicity at 70.5 h was -4.88%.

For `CCCN(CC)C(=O)c1ncn2c1CN(C)S(=O)(=O)c1ccccc1-2`, the cytotoxicity at 70.5 h worked out at 1.29%.

As to `O=C1CO[C@@H]2CN(C3CCOCC3)C[C@H]2N1Cc1ccncc1`, the cytotoxicity at 70.5 h was determined as 4.06%.

For the compound `O=C1CCCN1Cc1ncn2c1CN(C(=O)NC1CCCC1)CCC2`, the cytotoxicity at 70.5 h was 5.73%.

For the compound `Cc1csc(CN2CCC[C@]3(C[C@H](OCC4CC4)CO3)C2)n1`, the cytotoxicity at 70.5 h worked out at 1.27%.

In the case of `Cc1nc(CN2C(=O)C[C@@H]3[C@@H]2CCN3S(=O)(=O)C2CC2)cs1`, the cytotoxicity at 70.5 h was 19.1%.

Take `Cc1nc(CN2C[C@@H]3CN(C(=O)c4ccoc4C)C[C@@H]3C2)cs1`: the cytotoxicity at 70.5 h was 28.2%.

Regarding `O=C1CCCN1Cc1ncn2c1CN(C(=O)NC1CCCCC1)CCC2`, the cytotoxicity at 70.5 h is 27.2%.

With `COCCO[C@@H]1CCN(C(=O)c2ccnnc2)[C@H]1Cc1cnn(C)c1`, the cytotoxicity at 70.5 h is -116%.

With `COCCN1C[C@@H]2CN(c3ncc(F)cn3)C[C@@H]2C1=O`, the cytotoxicity at 70.5 h is -47.2%.

Regarding `COCCO[C@H]1CCN(C(=O)c2ccoc2C)[C@H]1Cc1cnn(C)c1`, the cytotoxicity at 70.5 h is -114%.

In the case of `COCCC(=O)N1CCC2(CCCN2Cc2cccc(Cl)c2)C1` (stereo unspecified), the cytotoxicity at 70.5 h was -53.8%.

For the compound `COCCO[C@@H]1CCN(C(=O)c2occc2C)[C@H]1Cc1cnn(C)c1`, the cytotoxicity at 70.5 h was -90.5%.

In the case of `COc1nn(C)c2c1CCCN(C(=O)c1cccs1)C2`, the cytotoxicity at 70.5 h is -23.5%.

Turning to `CC(=O)N1CCC2(CC1)CN(C)CC[C@H]2C(F)(F)F`, the cytotoxicity at 70.5 h is -4.42%.

With `O=C(N[C@@H]1CN[C@H]2CCCO[C@H]21)c1cccnc1`, the cytotoxicity at 70.5 h was 1.62%.

Regarding `CN1CCN(Cc2cn3c(n2)CNCC3)CC1`, the cytotoxicity at 70.5 h amounted to 23.1%.

As to `Fc1cnc(N2CCCn3c(nnc3Cn3ccnc3)C2)nc1`, the cytotoxicity at 70.5 h is -4.74%.

For `Cn1nc(Cn2cccn2)c2c1CN(Cc1ccsc1)C2`, the cytotoxicity at 70.5 h was -1.91%.

Consider `Cn1nc(Cn2cccc2)c2c1CN(Cc1ccsc1)C2`, for which the cytotoxicity at 70.5 h was -9.77%.

Turning to `CCS(=O)(=O)N1CCC2(CC1)CCn1c(-c3cnn(C)c3)cnc12`, the cytotoxicity at 70.5 h is -13%.

As to `Cc1ncnc2c1CCN(c1ccccn1)CC2`, the cytotoxicity at 70.5 h is -14%.

`CCCS(=O)(=O)N1CCC2(CC1)CCn1c(-c3cnn(C)c3)cnc12`: the cytotoxicity at 70.5 h is -11.3%.

Regarding `Cn1cc(-c2cnc3n2CCC32CCN(S(=O)(=O)C3CC3)CC2)cn1`, the cytotoxicity at 70.5 h was -9.03%.

Consider `O=C(NCC1CC1)c1nc2c(o1)CN(CC1CC1)C2`, for which the cytotoxicity at 70.5 h was -6.5%.

For the compound `CCN1CCCC12CCN(C(=O)c1ccsc1)CC2`, the cytotoxicity at 70.5 h was -7.76%.

Turning to `CCOCC1CN(C(=O)c2ccncn2)Cc2cnn(C)c21` (stereo unspecified), the cytotoxicity at 70.5 h was -3.18%.

With `CCOCC1c2c(cnn2C)CCN1C(=O)c1ccncn1` (stereo unspecified), the cytotoxicity at 70.5 h is -14.6%.

For the compound `COCCN1CCO[C@H]2CN(C(=O)c3ccncc3F)C[C@H]21`, the cytotoxicity at 70.5 h is -9.68%.

On to `CCN(CC)[C@@H]1CN(C(=O)c2ccc(C#N)cc2)[C@@H]2CCCO[C@H]12`, for which the cytotoxicity at 70.5 h is -4.73%.

On to `CCN(CC)[C@@H]1CN(C(=O)c2ccnnc2)[C@@H]2CCCO[C@H]12`, for which the cytotoxicity at 70.5 h is -8.7%.

Regarding `O=C(NCC1CN(c2ncccn2)Cc2nccn2C1)c1cccnc1` (stereo unspecified), the cytotoxicity at 70.5 h was -4.53%.

Regarding `O=S(=O)(C1CC1)N1C[C@@H]2CN(Cc3cccs3)CCO[C@@H]2C1`, the cytotoxicity at 70.5 h was 11.2%.

For the compound `CCS(=O)(=O)N1C[C@@H]2CN(Cc3cccs3)CCO[C@@H]2C1`, the cytotoxicity at 70.5 h turned out to be 6.04%.

Take `O=C(Nc1cnccn1)[C@H]1CC[C@@H]2[C@@H](CCN2Cc2ccccn2)O1`: the cytotoxicity at 70.5 h was -0.71%.

In the case of `Cc1oncc1C(=O)N1CCC2(CCN(Cc3cccnc3)C2=O)C1` (stereo unspecified), the cytotoxicity at 70.5 h was -3.48%.

`Cn1ccc(C(=O)NC2CCC23CCN(Cc2cnn(C)c2)CC3)c1` (stereo unspecified): the cytotoxicity at 70.5 h was -1.29%.

Take `Cc1nc(CN2C(=O)CC[C@@H]3[C@H]2CCN3C2CCOCC2)cs1`: the cytotoxicity at 70.5 h is -2.88%.

For `Cc1occc1C(=O)N1CCC2(CCN(Cc3ccccn3)C2=O)C1` (stereo unspecified), the cytotoxicity at 70.5 h worked out at 5.42%.

In the case of `Cc1cnc(C(=O)N2CCC3(CCN(Cc4ccccn4)C3=O)C2)cn1` (stereo unspecified), the cytotoxicity at 70.5 h came out at 6.84%.

As for `CCC(C)(C)NC(=O)c1ncn2c1CN(C)S(=O)(=O)c1ccccc1-2`, the cytotoxicity at 70.5 h came out at 20.8%.

As for `Cc1ccc(CN2CCC3(CCC3NC(=O)c3ccn(C)c3)CC2)s1` (stereo unspecified), the cytotoxicity at 70.5 h came out at 0.0423%.

For the compound `Cn1ccc(C(=O)NC2CCC23CCN(Cc2ccc(F)cc2)CC3)c1` (stereo unspecified), the cytotoxicity at 70.5 h is -0.822%.

Regarding `O=C(Nc1cnccn1)[C@@H]1CC[C@@H]2[C@@H](CCN2Cc2nccs2)O1`, the cytotoxicity at 70.5 h is -4.62%.

Regarding `Cc1csc(CN2CCC[C@]3(C[C@@H](OCC4CC4)CO3)C2)n1`, the cytotoxicity at 70.5 h stood at 24.4%.

Consider `Cc1ccc(CN2CCn3cc(CNC(=O)c4cnn(C)c4)nc3C2)s1`, for which the cytotoxicity at 70.5 h is -102%.

Turning to `CN1CC(=O)N(c2ccsc2)CC12CCN(S(=O)(=O)c1ccccc1)C2` (stereo unspecified), the cytotoxicity at 70.5 h was -109%.

`COCCNC(=O)c1cc(-c2cc[nH]n2)n2ccccc12`: the cytotoxicity at 70.5 h was -117%.

With `Cn1cccc1C(=O)NCc1cn2c(n1)CN(CC1CCOCC1)CC2`, the cytotoxicity at 70.5 h was -78.7%.

In the case of `Cc1cnc(N2CC[C@@H]3O[C@@H](COCC(=O)N(C)C)CC[C@@H]32)nc1`, the cytotoxicity at 70.5 h was -99.7%.

In the case of `Cc1cc(C)cc(CN2CCC3(CC2)CC(Nc2ncccn2)CO3)c1` (stereo unspecified), the cytotoxicity at 70.5 h was -68.4%.

`c1cnc(NC2COC3(CCN(Cc4ccoc4)CC3)C2)nc1` (stereo unspecified): the cytotoxicity at 70.5 h is -97.7%.

As to `c1cnc(NCc2nnn3c2CN(Cc2ccco2)CCC3)nc1`, the cytotoxicity at 70.5 h is -109%.

As to `Cn1cc(C(=O)NCc2cn3c(n2)CN(C2CCOCC2)CC3)cn1`, the cytotoxicity at 70.5 h was -109%.

Consider `C1CC(CO[C@@H]2CC[C@H]3[C@H]2OCCN3CC2CCOCC2)CCO1`, for which the cytotoxicity at 70.5 h is -81.4%.

Turning to `Cc1nc[nH]c1CN1CCC2(CC1)CC(Nc1ncccn1)CO2` (stereo unspecified), the cytotoxicity at 70.5 h is -94.8%.

On to `O=C(Nc1cnccn1)[C@@H]1COC[C@H]2CN(C3CCC3)C[C@H]21`, for which the cytotoxicity at 70.5 h was -87.9%.

`CCO[C@@H]1CC[C@H]2[C@H]1OCCN2CC1CCOCC1`: the cytotoxicity at 70.5 h was 38.8%.

Consider `CN(C)C(=O)COC[C@@H]1CC[C@H]2[C@H](CCN2c2ccccn2)O1`, for which the cytotoxicity at 70.5 h was 44.1%.

For `COCC1CN(Cc2ccoc2)Cc2nn(CC3CC3)cc21` (stereo unspecified), the cytotoxicity at 70.5 h worked out at 18.3%.

Turning to `CN1CCN(C)C(c2nnc3ccc(C(=O)N4CCOCC4)cn23)C1` (stereo unspecified), the cytotoxicity at 70.5 h is -21.5%.

Take `Cc1ccc(CN2C[C@H](OCCN(C)C)[C@H]3OCCC[C@H]32)o1`: the cytotoxicity at 70.5 h worked out at 3.05%.

Turning to `CC(C)N1[C@H](CN2CCCC2)C[C@@H]2CN(C(=O)c3ccoc3)CC[C@@H]21`, the cytotoxicity at 70.5 h was determined as 1.33%.

On to `CN1CC(=O)N(c2cnn(C)c2)CC12CCN(CC1CC1)C2` (stereo unspecified), for which the cytotoxicity at 70.5 h is -2.29%.

With `c1cncc(O[C@@H]2CC[C@H]3[C@H]2OCCN3C2CCCC2)c1`, the cytotoxicity at 70.5 h came out at 3.46%.

Consider `Cc1csc(CN2CC[C@H]3O[C@H](C(=O)Nc4cccnc4)CC[C@H]32)n1`, for which the cytotoxicity at 70.5 h was 8.96%.

Regarding `COc1ccccc1CN1C[C@@H]2COC[C@]2(COc2cccnc2)C1`, the cytotoxicity at 70.5 h is -116%.

As to `c1csc(CN2C[C@@H]3COC[C@]3(COCc3ccncc3)C2)c1`, the cytotoxicity at 70.5 h is 28.4%.

For `CN1[C@H](CN2CCCC2)C[C@@H]2CN(Cc3ccoc3)CC[C@@H]21`, the cytotoxicity at 70.5 h was determined as 4.1%.

Turning to `Cc1ccsc1CN1C[C@@H]2CN(Cc3cccnc3)CCO[C@@H]2C1`, the cytotoxicity at 70.5 h worked out at 10.4%.

On to `Cc1nnc(N2CCCC3(CN(Cc4cccnc4)CCO3)C2)o1` (stereo unspecified), for which the cytotoxicity at 70.5 h was -4.29%.

`Cc1cccc(CN2C[C@@H]3COC[C@]3(COc3cccnc3)C2)n1`: the cytotoxicity at 70.5 h is -120%.

`CN(C)Cc1nnn2c1CN(Cc1cccnc1)CCC2`: the cytotoxicity at 70.5 h is -83.6%.

The values are drawn from ChEMBL document CHEMBL3507680, “University of Dundee, Gates Library screen for HepG2 cell viability”.
